Each structure is given as a SMILES string. Where two headings read alike, the source gives them in different places. A value given as a limit tells only on which side of the number the result lay.

For one test, the target named is T1, SLC6A12 (Homo sapiens, UniProt P48065).
T1 construct: expressed in transfected cells; host or cells: Jump In T-REx HEK293
T1 sequence (P48065 1-614): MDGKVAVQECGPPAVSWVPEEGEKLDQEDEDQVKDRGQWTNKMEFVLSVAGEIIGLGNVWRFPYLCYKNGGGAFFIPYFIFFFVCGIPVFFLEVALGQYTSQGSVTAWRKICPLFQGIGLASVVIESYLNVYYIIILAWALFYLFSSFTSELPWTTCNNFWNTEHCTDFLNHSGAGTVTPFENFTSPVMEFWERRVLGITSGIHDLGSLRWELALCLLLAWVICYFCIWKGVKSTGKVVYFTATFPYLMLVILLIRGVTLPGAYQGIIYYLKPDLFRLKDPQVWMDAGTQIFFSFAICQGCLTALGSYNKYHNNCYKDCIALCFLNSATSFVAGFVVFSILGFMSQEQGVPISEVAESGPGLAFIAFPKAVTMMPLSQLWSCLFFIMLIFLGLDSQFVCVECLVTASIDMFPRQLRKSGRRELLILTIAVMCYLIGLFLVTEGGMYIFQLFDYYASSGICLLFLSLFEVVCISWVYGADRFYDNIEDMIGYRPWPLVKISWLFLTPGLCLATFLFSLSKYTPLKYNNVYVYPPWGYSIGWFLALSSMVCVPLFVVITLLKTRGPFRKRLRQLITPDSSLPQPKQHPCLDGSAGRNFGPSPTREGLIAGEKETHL
The experiment in a line: Membrane potential dye-based assay, HEK293–JumpIn–SLC6A12 cells. In kind it is cell-based. How it is done: FLIPR Membrane Potential Blue Dye was used to detect the compound activities for those membrane transporters that are electrogenic or whose activity is associated with changes in membrane potential, as previously described ([Jensen and BräunerOsborne, 2004]). In brief, cells are seeded at cell line-specific density in black clear-bottom poly-D-Lysine-coated 384-well plates (Greiner Bio-One) in DMEM high-glucose medium with 10% FBS, 1% P/S, and 2 mM UltraGlutamine I (25 µL/well). Furthermore, 24 h after seeding, the culture medium is removed, and the cells are loaded with 20 µL/well of 0.5 X FMP Blue Dye in assay buffer (modified Tyrode’s buffer, 130 mM NaCl, 5 mM KCl, 1 mM MgCl2, 2 mM CaCl2, 5 mM NaHCO3, and 20 mM HEPES pH 7.4). The plates are subsequently incubated for at least 30 min at room temperature in the dark. Then, 10 µL/well of test compounds and controls is added at defined concentrations (0.5% DMSO final conc.) in the FLIPR TETRA instrument (Molecular Devices), and emitted fluorescence is recorded using a λexc 510–545-nm/λem 565–625-nm filter. The dose–response curves for the 19 compounds were prepared starting from 3 µM (final top concentration), the half-log serial dilution factor. For data analysis, Genedata Screener 19.0 software was used.
The robust Z prime factor (RZ’ factor) was calculated with the following formula: RZ^′=1−3∗RSDMAX+RSDMIN/AbsMAX − MIN, where the RZ’ factor is based on the same formula as the Z′ factor ([Zhang et al., 1999]) but standard deviations and means are replaced by the robust standard deviations and medians, respectively. Curve fitting profiles were performed on each dose–response curve with the analyzer module of Genedata Screener 19.0 on % activity.

The target of the next test is SLC1A2 (Homo sapiens, UniProt P43004). The experiment in a line: Echo-MS assay, uptake of labeled glutamic acid in dox-induced HEK293–JumpIn–SLC1A2 (EAAT2) cells. In kind it is cell-based. The arrangement: expressed in transfected cells; host or cells: Jump In T-REx HEK293. How it is done: Before the Echo-MS experiment, 15,000 cells per well were seeded into the wells of a 384-well plate (Beckman Coulter) and induced with […] doxycycline. […] The next day, compounds with stock solutions of 10 mM were first diluted to a final concentration of 90 µM before starting a 10-stage dilution series with a dilution factor of 1:3 with the CyBio FeliX pipetting robot. After the supernatant in the plate of the cell plate assay was discarded (BlueWasher, BlueCatBio), 10 µL of potassium/wash buffer including the compound dilution series was transferred by the pipetting robot (FeliX, CyBio), yielding a highest final concentration of 30 µM compound per well. After an incubation time of 15 min, 20 μL of L-Glutamic acid-13C5,15N with a concentration of 300 µM was added and incubated in an incubator at 37°C, 7.5% CO2, and 95% humidity. After 1 h incubation time, the wells were washed with 70 µL potassium buffer per well, and the supernatant was discarded before the precipitation process was started by adding 90 µL/well precipitation reagent (60% MeOH, 29% H2O, 11% formic acid) using a Multidrop Combi reagent dispenser (Thermo Fisher Scientific). After 30 min on the shaker at 500 rpm, the plates were centrifuged for 20 min at 2,000 rpm. Finally, 40 µL/well was transferred on qualified 384-well plates and then measured with Echo-MS/ADE-MS (Sciex). ADE-MS measurements were performed on an ADE-MS device (Sciex) operated with Sciex OS software (version 2.1.6.59781). A carrier solvent (60% acetonitrile, 39% H2O, and 1% formic acid) was used at a constant flow rate of 300 μL/min. For all samples, an ejection volume of 5 nL (2 droplets) and a repetition rate of 2.5 s/well were used. Triple Quad 6500+ was operated in a positive mode using the following settings: vaporizer temperature 450°C, spray voltage 5500 V, ion source gas 1: 90 psi, ion source gas 2: 70 psi, curtain gas 20 psi, CAD gas 9 psi, dwell time […], DP 35 V, EP 10 V, CE 14 V, and CXP 18 V. Data were processed with Sciex OS and further processed with Genedata Screener (version 19.0.9-Standard). Transporter inhibition by the compounds was tracked by analyzing the MS signal area values of uptaken labeled glutamic acid into the cell. The signal ratio of the reaction product to the respective standard was calculated to diminish variations ascribed to the sample preparation procedure or the MS readout. Average control values were calculated and set to 100% activity (high controls) and 0% activity (low controls), while the response values of compound-containing wells were normalized against the controls and expressed as the percentage of control (PoC).

Setting [1] is: target SLC6A12, Flipr Membrane Potential-Blue-Dye, read-out: pIC50 (act) (converted).
[2] abbreviates: target SLC1A2, assay EchoMS, read-out: pIC50 (act) (converted).
[3] abbreviates: dox-induced HEK293–JumpIn–SLC1A2 cells, top conc. 30 µM, read-out: pIC50, SLC1A2, EchoMS (converted).

SLC1A2, sequence (P43004 whole entry): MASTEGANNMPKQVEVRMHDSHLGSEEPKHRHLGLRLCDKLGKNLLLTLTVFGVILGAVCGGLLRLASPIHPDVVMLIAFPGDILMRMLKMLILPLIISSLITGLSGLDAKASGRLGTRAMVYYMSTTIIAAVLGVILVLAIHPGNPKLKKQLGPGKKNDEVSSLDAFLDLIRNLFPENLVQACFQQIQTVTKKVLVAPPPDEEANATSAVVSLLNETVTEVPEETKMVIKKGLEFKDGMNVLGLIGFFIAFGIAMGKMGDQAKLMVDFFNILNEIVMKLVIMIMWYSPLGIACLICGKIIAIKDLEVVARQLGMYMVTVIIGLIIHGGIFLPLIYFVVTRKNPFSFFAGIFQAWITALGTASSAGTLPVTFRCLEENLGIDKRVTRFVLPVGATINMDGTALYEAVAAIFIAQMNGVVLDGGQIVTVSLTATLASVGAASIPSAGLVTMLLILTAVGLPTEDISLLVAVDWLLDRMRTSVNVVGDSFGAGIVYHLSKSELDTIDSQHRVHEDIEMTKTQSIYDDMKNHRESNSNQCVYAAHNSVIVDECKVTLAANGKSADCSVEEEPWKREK

`Cc1c(NC(=O)c2cc(C(N)=O)nc3cc(F)ccc23)c(C(F)(F)F)nn1Cc1ccc(C#N)cc1` [BAY-876]: the IC50 is greater than 3.16 µM on SLC6A12 (setting [1]) and greater than 30 µM on SLC1A2 (setting [2]).

Regarding `CN1C2CCC1CC(OC(c1ccccc1)c1ccccc1)C2` (stereo not shown) [Benzotropine], the IC50 is greater than 3.16 µM at SLC6A12 (setting [1]) and greater than 30 µM at SLC1A2 (setting [2]).

Consider `CCNC(=O)/C=C/c1cccc(Br)c1` [Cinromide], for which the IC50 at SLC6A12 (setting [1]) was greater than 3.16 µM; on SLC1A2 (setting [2]), greater than 30 µM.

With `O=S(=O)(O)c1cc(N=C=S)ccc1/C=C/c1ccc(N=C=S)cc1S(=O)(=O)O` [DIDS], the IC50 at SLC6A12 (setting [1]) is greater than 3.16 µM; on SLC1A2 (setting [2]), greater than 30 µM.

Turning to `COCCOc1cc(CC2CCN(CCc3ccc4c(c3)C(=O)CCO4)CC2)ccc1Br` [DSP-1053], the inhibition at 3 µM at SLC6A12 (read-out: Inhibition (3 µM) [%], SLC6A12, MP dye) was found to be 36%. The IC50 is greater than 3.16 µM at SLC6A12 (setting [1]) and 11.7 µM at SLC1A2 (setting [2]).

For `CNCCCN1c2ccccc2CCc2ccccc21` [Desipramine], the IC50 is greater than 3.16 µM on SLC6A12 (setting [1]) and greater than 30 µM at SLC1A2 (setting [2]).

`CC(C)[C@H]1CN[C@H](C(=O)O)[C@H]1CC(=O)O` [Dihydrokainate]: the IC50 on SLC6A12 (setting [1]) was greater than 3.16 µM; at SLC1A2 (setting [2]) it was greater than 30 µM.

As for `N#Cc1ccc(Nc2cnccc2SCc2ccccc2C(=O)O)c2ccccc12` [KPH2f], the results for the IC50 on SLC6A12 (setting [1]) and at SLC1A2 (setting [2]) were greater than 3.16 µM and greater than 30 µM, respectively.

With `C=C(C)[C@H]1CN[C@H](C(=O)O)[C@H]1CC(=O)O` [Kainic acid], the IC50 on SLC6A12 was greater than 3.16 µM; on SLC1A2 it was greater than 30 µM.

As to `CCOC(=O)N1CCC(=C2c3ccc(Cl)cc3CCc3cccnc32)CC1` [Loratadine], the IC50 is greater than 3.16 µM on SLC6A12 (setting [1]) and greater than 30 µM at SLC1A2 (setting [2]).

Turning to `Nc1nc2ccc(OC(F)(F)F)cc2s1` [Riluzole], the IC50 at SLC6A12 (setting [1]) was greater than 3.16 µM; at SLC1A2 (setting [2]) it was greater than 30 µM.

Consider `N[C@H](C(=O)O)[C@H](OCc1cccc(NC(=O)c2ccc(C(F)(F)F)cc2)c1)C(=O)O` [TFB-TBOA], for which the figures for the IC50 on SLC6A12 (setting [1]), at SLC1A2 (setting [3]) and at SLC1A2 (setting [2]) were greater than 3.16 µM, 0.00794 µM and 0.0088 µM, respectively.

Regarding `NC(C(=O)O)C(OCc1ccccc1)C(=O)O` (stereo not drawn) [Threo-beta-benzyloxyaspartic acid, Threo-beta-Benzyloxyaspartic acid], the IC50 is greater than 3.16 µM at SLC6A12 (setting [1]), 7.94 µM on SLC1A2 (setting [3]) and 8.6 µM at SLC1A2 (setting [2]).

For the molecule `Cc1ccsc1C(=CCCN1CCC[C@@H](C(=O)O)C1)c1sccc1C` [Tiagabine], the IC50 on SLC6A12 (setting [1]) was greater than 3.16 µM; on SLC1A2 (setting [2]), greater than 30 µM.

`COc1ccc(C2C(C#N)=C(N)OC3=C2C(=O)CC(c2cccc4ccccc24)C3)cc1` (stereo not shown) [UCPH-101]: the IC50 on SLC6A12 (setting [1]) was greater than 3.16 µM; on SLC1A2 (setting [2]), greater than 30 µM.

As for `CC1C(C#N)=C(N)OC2=C1C(=O)CC(c1cccc3ccccc13)C2` (stereo not shown) [UCPH-102], the IC50 at SLC6A12 (setting [1]) was greater than 3.16 µM; on SLC1A2 (setting [2]), greater than 30 µM.

Take `Fc1ccc(C(OCCN2CCN(CCCc3ccccc3)CC2)c2ccc(F)cc2)cc1` [Vanoxerine (GBR12909), Vanoxerine]: the IC50 is greater than 3.16 µM on SLC6A12 (setting [1]) and 19.7 µM on SLC1A2 (setting [2]).

For `N[C@@H](CC(=O)Nc1ccc(Oc2cc(F)c(F)cc2Br)cc1)C(=O)O` [WAY-213613], the IC50 at SLC6A12 (setting [1]) is greater than 3.16 µM; at SLC1A2 (setting [3]) it was 0.251 µM; at SLC1A2 (setting [2]) it was 0.26 µM.

The values are drawn from PMC11267547, “Advancing drug discovery through assay development: a survey of tool compounds within the human solute carrier superfamily” (Frontiers in Pharmacology, 2024).
